The assay addresses α4β7 integrin (Homo sapiens (Human), UniProt P13612+P26010). In words: MAdCAM-1/α4β7 integrin binding inhibitory activity evaluation test in the presence of serum (2). It counts as cell-based. The settings on record: RPMI-8866 cells binding to mouse MAdCAM-1/Fc, same manner as Test (3), read-out: α4β7 Rank of activity with serum added. How it is done: The ability of test substances to inhibit the binding of a human B cell line, RPMI-8866, which is known to express α4β7 integrin, to MAdCAM-1 was measured.
To 96-well microtiter plates, recombinant mouse MAdCAM-1/Fc (R&D systems) solution (1 μg/mL) diluted with buffer A (carbonate buffer, pH 9.6) was added at 50 μL/well, followed by incubation at 4° C. overnight. After washing once with PBS, Block Ace (Snow Brand Milk Products Company, Limited) was added at 150 μL/well, followed by incubation at room temperature for 2 hours. After removal, washing was conducted once with PBS.
100 μL of each test substance diluted with a binding buffer (DMEM containing 40 mM HEPES, 0.2% BSA, and 4 mM MnCl2) to various concentrations and 100 μL of RPMI-8866 cells (2×10^6 cell/mL) were added to plates coated with MAdCAM-1/Fc (5×10^5 cells/well) with human serum being contained at a final concentration of 50%, followed by incubation at 30° C. for 15 minutes to 60 minutes. After the cells were bound to each well, unbound cells were removed by washing with PBS. To the plates, buffer C (PBS containing 1.5% Triton X-100) was added at 50 μL/well to lyse the bound RPMI-8866 cells. To 30 μL of the cell lysate, 30 μL of Substrate Buffer (Promega, CytoTox 96 Non-Radioactive Cytotoxicity Assay) was added, and the reaction was allowed to proceed at room temperature in a dark place for 30 minutes. To each well, 30 μL of Stop Solution (Promega, CytoTox 96 Non-Radioactive Cytotoxicity Assay) was added, and the absorbance at 490 nm was measured by using a plate reader. Here, by the obtained absorbance, the activity of the lactate dehydrogenase (LDH) dissolved into the supernatant of each well was detected. In other words, the absorbance was proportional to the number of the RPMI-8866 cells bound to MAdCAM-1 and remaining on the plate. The test was duplicated. The binding ratios of the cells at various concentrations were determined, with the absorbance of a well containing no test substance taken as 100%. Then, the concentration IC50, at which 50% binding inhibition was achieved, was calculated.
The MAdCAM-1/α4β7 integrin binding inhibitory activity in the presence of serum was measured in the same manner as in Test (3) described above. […] The VCAM-1/α4β1 integrin binding inhibitory activity evaluation test and the MAdCAM-1/α4β7 integrin binding inhibitory activity evaluation test were carried out according to the methods described in Tests (1) and (2) described above.
α4β7 integrin, sequence (P13612 34-1032): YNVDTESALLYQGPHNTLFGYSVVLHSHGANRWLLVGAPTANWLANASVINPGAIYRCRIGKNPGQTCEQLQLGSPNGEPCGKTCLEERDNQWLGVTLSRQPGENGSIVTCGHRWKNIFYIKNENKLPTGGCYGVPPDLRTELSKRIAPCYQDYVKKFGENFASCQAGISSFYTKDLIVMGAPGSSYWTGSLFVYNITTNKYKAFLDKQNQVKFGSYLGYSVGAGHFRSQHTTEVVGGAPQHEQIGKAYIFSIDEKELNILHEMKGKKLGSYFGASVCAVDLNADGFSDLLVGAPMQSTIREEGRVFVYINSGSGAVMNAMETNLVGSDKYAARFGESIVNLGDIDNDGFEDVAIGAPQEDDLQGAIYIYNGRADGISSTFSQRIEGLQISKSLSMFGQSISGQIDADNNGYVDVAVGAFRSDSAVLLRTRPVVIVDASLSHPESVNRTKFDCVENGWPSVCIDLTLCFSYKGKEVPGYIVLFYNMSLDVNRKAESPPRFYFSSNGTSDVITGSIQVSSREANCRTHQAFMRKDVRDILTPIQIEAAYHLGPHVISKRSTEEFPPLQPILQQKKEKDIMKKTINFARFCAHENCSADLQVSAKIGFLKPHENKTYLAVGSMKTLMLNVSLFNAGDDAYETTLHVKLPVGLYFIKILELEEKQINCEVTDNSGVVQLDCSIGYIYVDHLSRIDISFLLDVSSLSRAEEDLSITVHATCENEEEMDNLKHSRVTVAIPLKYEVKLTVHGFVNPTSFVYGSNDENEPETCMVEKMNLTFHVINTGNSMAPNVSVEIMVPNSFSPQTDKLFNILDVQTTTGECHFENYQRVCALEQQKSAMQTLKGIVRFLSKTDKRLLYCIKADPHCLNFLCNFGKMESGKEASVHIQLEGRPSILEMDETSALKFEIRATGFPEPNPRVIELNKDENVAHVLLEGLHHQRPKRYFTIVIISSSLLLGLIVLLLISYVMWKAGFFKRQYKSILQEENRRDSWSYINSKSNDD
α4β7 integrin, sequence (P26010 20-798): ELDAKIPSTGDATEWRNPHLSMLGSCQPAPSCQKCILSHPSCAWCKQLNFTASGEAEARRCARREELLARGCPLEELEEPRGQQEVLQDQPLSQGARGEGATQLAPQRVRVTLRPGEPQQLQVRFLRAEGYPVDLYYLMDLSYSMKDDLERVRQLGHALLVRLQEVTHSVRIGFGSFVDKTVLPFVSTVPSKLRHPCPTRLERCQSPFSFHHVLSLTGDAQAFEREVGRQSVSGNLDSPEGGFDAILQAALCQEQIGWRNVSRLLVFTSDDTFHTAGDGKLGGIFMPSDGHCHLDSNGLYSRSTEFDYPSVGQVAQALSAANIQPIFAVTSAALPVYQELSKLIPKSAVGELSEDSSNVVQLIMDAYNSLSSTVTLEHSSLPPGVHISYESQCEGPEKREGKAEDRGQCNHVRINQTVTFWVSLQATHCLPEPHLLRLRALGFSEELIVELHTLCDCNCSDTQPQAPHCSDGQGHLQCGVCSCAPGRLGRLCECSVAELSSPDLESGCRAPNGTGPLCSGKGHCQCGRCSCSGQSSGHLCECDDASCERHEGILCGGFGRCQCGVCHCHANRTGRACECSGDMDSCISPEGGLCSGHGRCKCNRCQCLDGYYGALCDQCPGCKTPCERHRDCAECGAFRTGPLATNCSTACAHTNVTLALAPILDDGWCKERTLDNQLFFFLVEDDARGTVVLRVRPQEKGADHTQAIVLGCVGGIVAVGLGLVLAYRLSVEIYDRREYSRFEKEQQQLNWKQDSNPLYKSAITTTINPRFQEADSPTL
In the case of `Cn1c(=O)n(-c2ccc(C[C@H](NC(=O)c3c(F)cc(NS(=O)(=O)c4ccc(-c5ccsc5)cc4)cc3F)C(=O)O)nc2)c(=O)c2ccncc21` [Example 178, N-[2,6-Difluoro-4-({[4-(3-thienyl)phenyl]sulfonyl}amino)benzoyl]-3-[5-(1-methyl-2,4-dioxo-1,4-dihydropyrido[3,4-d]pyrimidin-3(2H)-yl)pyridin-2-yl]-L-alanine], the IC50 was 10 to 50 nM. As to `Cn1c(=O)n(-c2ccc(C[C@H](NC(=O)c3ccc(NS(=O)(=O)c4cc[n+]([O-])cc4)cc3F)C(=O)O)cc2)c(=O)c2cc[n+]([O-])cc21` [Example 179, (2S)-2-[[2-Fluoro-4-[(1-oxidopyridin-1-ium-4-yl)sulfonylamino]benzoyl]amino]-3-[4-(1-methyl-7-oxido-2,4-dioxo-pyrido[3,4-d]pyrimidin-7-ium-3-yl)phenyl]propanoic Acid], the IC50 is no more than 10 nM. For `Cc1cc(CNC(C)(C)C)ccc1S(=O)(=O)Nc1ccc(C(=O)N[C@@H](Cc2ccc(-n3c(=O)c4ccncc4n(C)c3=O)cc2)C(=O)O)c(F)c1` [Example 180, N-{4-[({4-[(tert-Butylamino)methyl]-2-methylphenyl}sulfonyl)amino]-2-fluorobenzoyl}-4-(1-methyl-2,4-dioxo-1,4-dihydropyrido[3,4-d]pyrimidin-3(2H)-yl)-L-phenylalanine], the IC50 is no more than 10 nM. As to `Cc1cc(CNC2CCCC2)ccc1S(=O)(=O)Nc1ccc(C(=O)N[C@@H](Cc2ccc(-n3c(=O)c4ccncc4n(C)c3=O)cc2)C(=O)O)c(F)c1` [Example 181, N-{4-[({4-[(Cyclopentylamino)methyl]-2-methylphenyl}sulfonyl)amino]-2-fluorobenzoyl}-4-(1-methyl-2,4-dioxo-1,4-dihydropyrido[3,4-d]pyrimidin-3(2H)-yl)-L-phenylalanine], the IC50 was in the range of 10 to 50 nM. For the molecule `Cn1c(=O)n(-c2ccc(C[C@H](NC(=O)c3ccc(NS(=O)(=O)c4ccc[nH]4)cc3F)C(=O)O)nc2)c(=O)c2ccncc21` [Example 182, N-{2-Fluoro-4-[(1H-pyrrol-2-yl-sulfonyl)amino]benzoyl}-3-[5-(1-methyl-2,4-dioxo-1,4-dihydropyrido[3,4-d]pyrimidin-3(2H)-yl)pyridin-2-yl]-L-alanine], the IC50 fell in the range of 10 to 50 nM. Take `Cn1c(=O)n(-c2ccc(C[C@H](NC(=O)c3ncc(NS(=O)(=O)c4ccco4)cc3F)C(=O)O)cc2)c(=O)c2ccncc21` [Example 183, N-({3-Fluoro-5-[(2-furylsulfonyl)amino]pyridin-2-yl}carbonyl)-4-(1-methyl-2,4-dioxo-1,4-dihydropyrido[3,4-d]pyrimidin-3(2H)-yl)-L-phenylalanine]: the IC50 was 10 to 50 nM. Turning to `Cn1c(=O)n(-c2ccc(C[C@H](NC(=O)c3ncc(NS(=O)(=O)c4ccncc4)cc3F)C(=O)O)cc2)c(=O)c2ccncc21` [Example 184, N-({3-Fluoro-5-[(pyridin-4-yl-sulfonyl)amino]pyridin-2-yl}carbonyl)-4-(1-methyl-2,4-dioxo-1,4-dihydropyrido[3,4-d]pyrimidin-3(2H)-yl)-L-phenylalanine], the IC50 was in the range of 10 to 50 nM. Regarding `Cn1c(=O)n(-c2ccc(C[C@H](NC(=O)c3c(F)cc(NS(=O)(=O)c4ccccc4O)cc3F)C(=O)O)nc2)c(=O)c2ccncc21` [Example 185, N-(2,6-Difluoro-4-{[(2-hydroxyphenyl)sulfonyl]amino}benzoyl)-3-[5-(1-methyl-2,4-dioxo-1,4-dihydropyrido[3,4-d]pyrimidin-3(2H)-yl)pyridin-2-yl]-L-alanine], the IC50 was in the range of 10 to 50 nM.

Take `Cn1c(=O)n(-c2ccc(C[C@H](NC(=O)c3cc(F)c(NS(=O)(=O)c4cccs4)cc3F)C(=O)O)cc2)c(=O)c2ccncc21` [Example 213, N-{2,5-Difluoro-4-[(2-thienylsulfonyl)amino]benzoyl}-4-(1-methyl-2,4-dioxo-1,4-dihydropyrido[3,4-d]pyrimidin-3(2H)-yl)-L-phenylalanine]: the IC50 is 10 to 50 nM. For `CCOc1ccccc1S(=O)(=O)Nc1cc(F)c(C(=O)N[C@@H](Cc2ccc(-n3c(=O)c4ccncc4n(C)c3=O)cc2)C(=O)O)c(F)c1` [Example 214, N-(4-{[(2-Ethoxyphenyl)sulfonyl]amino}-2,6-difluorobenzoyl)-4-(1-methyl-2,4-dioxo-1,4-dihydropyrido[3,4-d]pyrimidin-3(2H)-yl)-L-phenylalanine] the value was 10 to 50 nM. For the molecule `Cn1c(=O)n(-c2ccc(C[C@H](NC(=O)c3cc(F)c(NS(=O)(=O)c4ccc(-c5cncnc5)cc4)cc3F)C(=O)O)nc2)c(=O)c2ccncc21` [Example 215, N-(2,5-Difluoro-4-{[(4-pyrimidin-5-ylphenyl)sulfonyl]amino}benzoyl)-3-[5-(1-methyl-2,4-dioxo-1,4-dihydropyrido[3,4-d]pyrimidin-3(2H)-yl)pyridin-2-yl]-L-alanine], the IC50 fell in the range of 10 to 50 nM. For the molecule `Cn1ccc(=O)n(-c2ccc(C[C@H](NC(=O)c3cc(F)c(NS(=O)(=O)c4ccc(-c5cncnc5)cc4)cc3F)C(=O)O)cc2)c1=O` [Example 216, N-(2,5-Difluoro-4-{[(4-pyrimidin-5-ylphenyl)sulfonyl]amino}benzoyl)-4-(3-methyl-2,6-dioxo-3,6-dihydropyrimidin-1(2H)-yl)-L-phenylalanine], the IC50 fell in the range of 10 to 50 nM. Take `Cn1c(=O)n(-c2ccc(C[C@H](NC(=O)c3cc(F)c(NS(=O)(=O)c4ccc(-n5cncn5)cn4)cc3F)C(=O)O)nc2)c(=O)c2ccncc21` [Example 217, N-[2,5-Difluoro-4-({[5-(1H-1,2,4-triazol-1-yl)pyridin-2-yl]sulfonyl}amino)benzoyl]-3-[5-(1-methyl-2,4-dioxo-1,4-dihydropyrido[3,4-d]pyrimidin-3(2H)-yl)pyridin-2-yl]-L-alanine]: the IC50 lay within 10 to 50 nM. For the molecule `Cn1c(=O)n(-c2ccc(C[C@H](NC(=O)c3cc(F)c(NS(=O)(=O)c4ccc(-n5cnnn5)cc4)cc3F)C(=O)O)nc2)c(=O)c2ccncc21` [Example 218, N-[2,5-Difluoro-4-({[4-(1H-tetrazol-1-yl)phenyl]sulfonyl}amino)benzoyl]-3-[5-(1-methyl-2,4-dioxo-1,4-dihydropyrido[3,4-d]pyrimidin-3(2H)-yl)pyridin-2-yl]-L-alanine], the IC50 was 10 to 50 nM.

`Cn1c(=O)n(-c2ccc(C[C@H](NC(=O)c3cc(F)c(NS(=O)(=O)c4ccc(-n5cnnc5)cc4)cc3F)C(=O)O)nc2)c(=O)c2ccncc21` [Example 219, N-[2,5-Difluoro-4-({[4-(4H-1,2,4-triazol-4-yl)phenyl]sulfonyl}amino)benzoyl]-3-[5-(1-methyl-2,4-dioxo-1,4-dihydropyrido[3,4-d]pyrimidin-3(2H)-yl)pyridin-2-yl]-L-alanine]: the IC50 lay in the range of 10 to 50 nM. For `Cn1c(=O)n(-c2ccc(C[C@H](NC(=O)c3cc(F)c(NS(=O)(=O)c4ccc(-c5cncnc5)cn4)cc3F)C(=O)O)nc2)c(=O)c2ccncc21` [Example 220, N-(2,5-Difluoro-4-{[(5-pyrimidin-5-ylpyridin-2-yl)sulfonyl]amino}benzoyl)-3-[5-(1-methyl-2,4-dioxo-1,4-dihydropyrido[3,4-d]pyrimidin-3(2H)-yl)pyridin-2-yl]-L-alanine] the value was 10 to 50 nM.
